According to US12472140B2, “Composition and method for transdermal delivery of cannabidiol (CBD) and tetrahydrocannabinol (THC)” (Ovation Science Inc., priority 2020, dated 2025):

Columns and labels:
[1] = cited from earlier work
[2] = Release of CBD and THC from the composition, effect of adding surfactant; assay type: physicochemical; conditions: for ratio of release of CBD and THC: numerically THC/CBD
Source text: Addition of surfactant can assist in release of CBD and THC from the composition.

[3] = Six-hour Franz Cell study of skin penetration by CBD and THC; conditions: for penetration of CBD relative to THC: at 6 hours
Solubility = conditions: polyvinylpyrrolidone polymers with C16, C20, C30 side chains
[4] = oral doses of 15-20 mg; cited from earlier work
[5] = Example 1, penetrant increased from 1% to 3%
[6] = Example 3, terpene penetrant increased from 1% to 3%

In the case of `C=C(C)[C@@H]1CCC(C)=C[C@H]1c1c(O)cc(CCCCC)cc1O` [CBD, cannabidiol], the “solubility in aqueous buffers” value [1] is given as “sparingly soluble”, the “solubility in organic solvents” value [1] is given as “readily soluble” and the “release from the composition” value ([2]; after addition of surfactant) is given as 30.2%. For the same molecule, the “release from the composition” value ([2]; before addition of surfactant) was 4.3%, the “penetration of CBD relative to THC” value ([3]; Example 1, 1:1 CBD:THC formulation) was about 4 times and the penetration [3, 5] was 5.8%. For the same molecule, the “penetration of CBD relative to THC” value ([3]; Example 3, 1:1 CBD:THC formulation) was about 2 times, the “actual (penetration) weight ratio of CBD:THC” value ([3]; Example 3, formulated weight ratio 1:1 CBD:THC) was 1.98 and the penetration [3, 6] was 5.8%. For the same molecule, the “solubility in hydrophobic polymer delivery system / polymer complexes” value (Solubility) was “readily soluble”.
For `CCCCCc1cc(O)c2c(c1)OC(C)(C)[C@H]1CCC(C)=C[C@H]21` [THC, Δ^9-tetrahydrocannabinol], the “effect on cancer pain” value [4] is given as “decreased cancer pain comparable to 120 mg of codeine”, the “solubility in aqueous buffers” value [1] is given as “sparingly soluble” and the “solubility in organic solvents” value [1] is given as “readily soluble”. For the same molecule, the “release from the composition” value ([2]; after addition of surfactant) was 21.7%, the “ratio of release of CBD and THC” value ([2]; after addition of surfactant) was 0.72 and the “release from the composition” value ([2]; before addition of surfactant) was 3%. The “ratio of release of CBD and THC” value ([2]; before addition of surfactant) was 0.7, the penetration [3, 5] was 3.2% and the penetration [3, 6] was 3.2%. For the same molecule, the “solubility in hydrophobic polymer delivery system / polymer complexes” value (Solubility) was “readily soluble”.
